≈ marks a conversion by molar mass, not a printed value. Where “and” joins values, the source holds several entries; their conditions need not be identical. Equal entries are not always repeated.
Assays:
[1] = system: Acinetobacter baumannii/haemolyticus, multidrug-resistant clinical isolate (AB-3167); test: MIC determination, AB-3167; assay type: cell-based; settings: Table 3, lower of duplicate values
Experimental: (§1) The in vitro antibacterial activity of compounds described in the Examples was evaluated by minimum inhibitory concentration (MIC) testing according to Clinical and Laboratory Standards Institute (CLSI). See: Clinical and Laboratory Standards Institute. Methods for Dilution Antimicrobial Susceptibility Tests for Bacteria that Grow Aerobically; Approved Standard-Eighth Edition. CLSI document M7-A8 [ISBN 1-56238-689-1]. Clinical and Laboratory Standards Institute, 940 West Valley Road, Suite 1400, Wayne, Pa. 19087-1898 USA, 2006; also Clinical and Laboratory Standards Institute. Performance Standards for Antimicrobial Susceptibility Testing; Twentieth Informational Supplement. CLSI document M100-S20 [ISBN 1-56238-716-2]. Clinical and Laboratory Standards Institute.
(§2) The MIC determination is a standard laboratory method for evaluating the antibacterial activity of a compound. The MIC represents the lowest drug concentration that inhibits visible growth of bacteria following overnight incubation. […] Typically, the drug concentration range is broken down into 2-fold increments (e.g. 0.06 μg/mL, 0.12 μg/mL. 0.25 μg/mL, 0.50 μg/mL, 1.0 μg/mL, etc.) and the various drug concentrations are all individually incubated overnight with approximately the same number of bacteria. The MIC is then determined by visually inspecting the drug effect at each concentration, and identifying the lowest drug concentration that has inhibited bacterial growth as compared to the drug free control. Typically, bacteria continue to grow at drug concentrations lower than the MIC and don't grow at concentrations at and above the MIC.
(§3) The MIC values described in Table 2 and 3 below were derived from assays wherein each test compound was evaluated in duplicate. In cases where the duplicate values varied by 0-2-fold, the lower of the two values was reported below. Generally speaking, if the duplicate values varied by more than 2-fold, the assay was considered non-valid and was repeated until the variation between duplicate runs was ≦2-fold. In line with the CLSI guidelines referred to above, both control organisms and reference compounds were utilized in each MIC assay to provide proper quality control. MIC values generated with these control organisms and reference compounds were required to fall within a defined range for the assay to be considered valid and be included herein. Those skilled in the art will recognize that MIC values can and do vary from experiment to experiment. Generally speaking, it should be recognized that MIC values often vary +/−2-fold from experiment to experiment. While a single MIC is reported for each compound and each microorganism, the reader should not conclude that each compound was only tested once. Several of the compounds were subjected to multiple tests. The data reported in Tables 2 and 3 is reflective of the compounds relative activity and different MICs may have been generated on these occasions in line with the guidelines described above.
(§4) The following bacterial strains were used in these MIC determinations:
2) Acinetobacter baumannii/haemolyticus: Multidrug-resistant clinical isolate labeled as AB-3167 in Tables 2 and 3;

PA:UC12120 = test: MIC determination, PA:UC12120 (Table 3); assay type: cell-based, Pseudomonas aeruginosa; settings: for MIC: Pseudomonas aeruginosa, UC12120, Table 3, lower of duplicate values
Experimental: as §1, §2, §3
In Table 3 below, column 1 corresponds to the Example number, column 2 provides the IUPAC name, columns 3-6 provide in vitro biological data generated in the same manner as in Table 2, columns 7 and 8 provide the retention times and mass spectra generated via LCMS, using the method described below. All data is not currently available for all compounds, as indicated by a blank cell in Table 3.

[2] = system: Escherichia coli EC-1: VOGEL, mouse virulent; test: MIC determination, EC-1; assay type: cell-based; settings: for MIC: Escherichia coli, read-out: EC-1 (MIC), Table 3, lower of duplicate values
Experimental: as §1, §2, §3, §4
3) Escherichia coli EC-1: VOGEL, mouse virulent labeled as EC-1 in Tables 2 and 3;

[3] = target: T1, Pseudomonas aeruginosa LpxC enzyme (Pseudomonas aeruginosa, UniProt P47205); test: IC50 assay, LpxC enzyme from P. aeruginosa (PA LpxC enzyme IC50); assay type: biochemical; settings: Table 3; LpxC enzyme 0.1 nM, 25° C., 1 hour; read-out: PA:IC50
T1 construct: made in house; host or cells: E. coli
T1 sequence (P47205 1-303): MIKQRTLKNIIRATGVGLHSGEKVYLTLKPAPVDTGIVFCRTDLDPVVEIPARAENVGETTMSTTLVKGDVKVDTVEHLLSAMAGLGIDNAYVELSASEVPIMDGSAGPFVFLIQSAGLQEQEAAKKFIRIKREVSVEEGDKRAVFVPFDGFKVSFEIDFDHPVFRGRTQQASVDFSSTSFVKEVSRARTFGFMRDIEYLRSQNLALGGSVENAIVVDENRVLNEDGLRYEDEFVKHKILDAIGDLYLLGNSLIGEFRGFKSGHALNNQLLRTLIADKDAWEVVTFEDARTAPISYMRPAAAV
Experimental: In order to assess the compounds biological activity, selected in vitro assays were conducted on selected compounds. One of the assays measured the compounds ability to disrupt the synthesis of lipopolysaccharide, LPS, which is a component of the outer membrane of Gram-negative bacteria. Disruption of this synthesis is lethal to the bacteria. The assay determined the compound's ability to inhibit LpxC, which is the first enzyme in the biosynthetic pathway for LPS (measured as IC50). Additionally, MICs (minimal inhibitory concentrations) were determined for several bacteria. The specific protocols are described below:
A) IC50 Assay, LpxC Enzyme from P. aeruginosa (Labeled as PA LpxC Enzyme IC50):
At the end of 1 hour, 5 ul of 1 N HCl was added to stop the enzyme reaction, the plates were centrifuged, and then processed with the BioTrove Rapidfire HTMS Mass Spectrometry System. A no-enzyme control was used in calculating the IC50 values from the percent conversion values.

[4] = Table 3, lower of duplicate values

| Compound | MIC [1] [mg/L] | MIC (PA:UC12120) [mg/L] | MIC [2] [mg/L] | IC50 [3] | PA:UC12120 (MIC) (PA:UC12120; [4]) [mg/L] | EC-1 (MIC) [2, 4] [mg/L] |
| --- | --- | --- | --- | --- | --- | --- |
| CC(CCn1cc(F)c(-c2ccccc2C#N)cc1=O)(C(=O)NO)S(C)(=O)=O (stereo not shown) [Example 94, 4-[4-(2-cyanophenyl)-5-fluoro-2-oxopyridin-1(2H)-yl]-N-hydroxy-2-methyl-2-(methylsulfonyl)butanamide] | 32 (≈ 78.5 µM) | 32 (≈ 78.5 µM) | 8 (≈ 19.6 µM) | 32.3 nM |  |  |
| Cn1cnc2cc(-c3cc(=O)n(CCC(C)(C(=O)NO)S(C)(=O)=O)cc3F)cnc21 (stereo not shown) [Example 71, 4-[5-fluoro-4-(3-methyl-3H-imidazo[4,5-b]pyridin-6-yl)-2-oxopyridin-1(2H)-yl]-N-hydroxy-2-methyl-2-(methylsulfonyl)butanamide] | > 64 | > 64 | > 64 | > 100 nM |  |  |
| COCc1ccccc1-c1cc(=O)n(CCC(C)(C(=O)NO)S(C)(=O)=O)cc1F (stereo not shown) [Example 110, 4-{5-fluoro-4-[2-(methoxymethyl)phenyl]-2-oxopyridin-1(2H)-yl}-N-hydroxy-2-methyl-2-(methylsulfonyl)butanamide] | > 64 | > 64 | > 64 | > 100 nM |  |  |
| COc1c(F)cc(-c2cc(=O)n(CCC(C)(C(=O)NO)S(C)(=O)=O)cc2F)cc1F (stereo not shown) [Example 62, 4-[4-(3,5-difluoro-4-methoxyphenyl)-5-fluoro-2-oxopyridin-1(2H)-yl]-N-hydroxy-2-methyl-2-(methylsulfonyl)butanamide] | > 64 | 2 (≈ 4.46 µM) | 4 (≈ 8.92 µM) | 2 nM and 3.1 nM | 1 | 8 |
| CNC(=O)c1ccc(-c2cc(=O)n(CCC(C)(C(=O)NO)S(C)(=O)=O)cc2F)cc1F (stereo not shown) [Example 52, 2-fluoro-4-{5-fluoro-1-[4-(hydroxyamino)-3-methyl-3-(methylsulfonyl)-4-oxobutyl]-2-oxo-1,2-dihydropyridin-4-yl}-N-methylbenzamide] | > 64 | 32 (≈ 70 µM) | 64 (≈ 140 µM) | 2.2 nM |  |  |
| CC(CCn1cc(F)c(-c2cncc(F)c2)cc1=O)(C(=O)NO)S(C)(=O)=O (stereo not shown) [Example 55, 4-(5,5′-difluoro-2′-oxo-3,4′-bipyridin-1′(2′H)-yl)-N-hydroxy-2-methyl-2-(methylsulfonyl)butanamide] | > 64 | 64 (≈ 159 µM) | > 64 | 66.8 nM |  |  |
| CC(CCn1cc(F)c(-c2ccccc2F)cc1=O)(C(=O)NO)S(C)(=O)=O (stereo not shown) [Example 103, 4-[5-fluoro-4-(2-fluorophenyl)-2-oxopyridin-1(2H)-yl]-N-hydroxy-2-methyl-2-(methylsulfonyl)butanamide] | > 64 | 0.5 (≈ 1.25 µM) | 4 (≈ 9.99 µM) | 1.4 nM |  |  |
| CC(CCn1cc(F)c(-c2ccc(C#N)c(F)c2)cc1=O)(C(=O)NO)S(C)(=O)=O (stereo not shown) [Example 58, 4-[4-(4-cyano-3-fluorophenyl)-5-fluoro-2-oxopyridin-1(2H)-yl]-N-hydroxy-2-methyl-2-(methylsulfonyl)butanamide] | > 64 | 8 (≈ 18.8 µM) | 32 (≈ 75.2 µM) | 2.6 nM |  |  |
| Cc1ccc2ccc(-c3cc(=O)n(CCC(C)(C(=O)NO)S(C)(=O)=O)cc3F)cc2n1 (stereo not shown) [Example 96, 4-[5-fluoro-4-(2-methylquinolin-7-yl)-2-oxopyridin-1(2H)-yl]-N-hydroxy-2-methyl-2-(methylsulfonyl)butanamide] | > 64 | 32 (≈ 71.5 µM) | 16 (≈ 35.8 µM) | 10.8 nM |  |  |
| CC(CCn1cc(F)c(-c2ccc(Cl)cc2)cc1=O)(C(=O)NO)S(C)(=O)=O (stereo not shown) [Example 107, 4-[4-(4-chlorophenyl)-5-fluoro-2-oxopyridin-1(2H)-yl]-N-hydroxy-2-methyl-2-(methylsulfonyl)butanamide] | > 64 | 0.25 (≈ 0.6 µM) | 1 (≈ 2.4 µM) | 1 nM |  |  |
| CCOc1ccc(-c2cc(=O)n(CCC(C)(C(=O)NO)S(C)(=O)=O)cc2F)cc1F (stereo not shown) [Example 95, 4-[4-(4-ethoxy-3-fluorophenyl)-5-fluoro-2-oxopyridin-1(2H)-yl]-N-hydroxy-2-methyl-2-(methylsulfonyl)butanamide] | 64 (≈ 144 µM) | 2 (≈ 4.5 µM) | 1 (≈ 2.25 µM) | 1.2 nM |  |  |
| CCOc1cc(-c2cc(=O)n(CCC(C)(C(=O)NO)S(C)(=O)=O)cc2F)ccn1 (stereo not shown) [Example 92, 4-(2′-ethoxy-5-fluoro-2-oxo-4,4′-bipyridin-1(2H)-yl)-N-hydroxy-2-methyl-2-(methylsulfonyl)butanamide] | > 64 | 8 (≈ 18.7 µM) | 8 (≈ 18.7 µM) | 5.7 nM |  |  |
| Cc1ncc(-c2cc(=O)n(CCC(C)(C(=O)NO)S(C)(=O)=O)cc2F)cc1F (stereo not shown) [Example 83, 4-(5,5′-difluoro-6-methyl-2′-oxo-3,4′-bipyridin-1′(2′H)-yl)-N-hydroxy-2-methyl-2-(methylsulfonyl)butanamide] | > 64 | 32 (≈ 77 µM) | > 64 | 27.5 nM |  |  |
| COc1cc(-c2cc(=O)n(CCC(C)(C(=O)NO)S(C)(=O)=O)cc2F)ccc1C#N (stereo not shown) [Example 74, 4-[4-(4-cyano-3-methoxyphenyl)-5-fluoro-2-oxopyridin-1(2H)-yl]-N-hydroxy-2-methyl-2-(methylsulfonyl)butanamide] | > 64 | 16 (≈ 36.6 µM) | 64 (≈ 146 µM) | 5.9 nM |  |  |
| CC(CCn1cc(F)c(-c2ccc(C(F)(F)F)nc2)cc1=O)(C(=O)NO)S(C)(=O)=O (stereo not shown) [Example 113, 4-[5′-fluoro-2′-oxo-6-(trifluoromethyl)-3,4′-bipyridin-1′(2′H)-yl]-N-hydroxy-2-methyl-2-(methylsulfonyl)butanamide] | > 64 | 32 (≈ 70.9 µM) | > 64 | 29.6 nM |  |  |
| COc1cccc(-c2cc(=O)n(CCC(C)(C(=O)NO)S(C)(=O)=O)cc2F)c1F (stereo not shown) [Example 118, 4-[5-fluoro-4-(2-fluoro-3-methoxyphenyl)-2-oxopyridin-1(2H)-yl]-N-hydroxy-2-methyl-2-(methylsulfonyl)butanamide] | > 64 | 1 (≈ 2.32 µM) | 1 (≈ 2.32 µM) | 0.7 nM |  |  |
| CC(CCn1cc(F)c(-c2ccc(F)cc2)cc1=O)(C(=O)NO)S(C)(=O)=O (stereo not shown) [Example 86, 4-[5-fluoro-4-(4-fluorophenyl)-2-oxopyridin-1(2H)-yl]-N-hydroxy-2-methyl-2-(methylsulfonyl)butanamide] | > 64 | 1 (≈ 2.5 µM) | 4 (≈ 9.99 µM) | 1.7 nM |  |  |

— US8624034B2, “Fluoro-pyridinone derivatives useful as antibacterial agents” (Pfizer Inc., priority 2011, dated 2014)
